From BindingDB's records for patent US12544374 (Novartis, 2026)

Experiments:
[1] = target: T1, Histone-lysine N-methyltransferase EZH2/Polycomb protein EED/Polycomb protein SUZ12 (Human, UniProt O75530+Q15022+Q15910); assay: ELISA Assay
Description: ELISA protocol: Cell lysates were transferred to the wells of a 384-well plate and the final volume was adjusted to 50 μL per well with PBS. The plate was sealed, centrifuged at 2,000 rpm for 2 min and incubated at 4° C. for about 16 h. The plate was washed with TBST buffer (1×TBS (10×TBS: 24.2 g Tris (Sigma, T6066), 80 g NaCl (Sigma, S3014) to 1 L of water and adjust pH to 7.6 with HCl) with 0.1% Tween-20). Blocking buffer (TBST, 5% BSA; 50 μL per well) was added and the plate was incubated for 1 h at rt. The blocking buffer was removed and primary antibody was added (30 μL per well). […] The primary antibody was incubated in the plate at rt for 1 h. The wells were washed with TBST and incubated with secondary antibody for 1 h at rt.

[2] = target: T1, Histone-lysine N-methyltransferase EZH2/Polycomb protein EED/Polycomb protein SUZ12; assay: EZH2 LC-MS Assay
Description: Representative compounds of the invention were serially and separately diluted 3-fold in DMSO to obtain twelve concentrations. […] Solutions (6 μL) of 80 nM wild type PRC2 (wtPRC2) complex and 60 μM SAM in reaction buffer (20 mM Tris, pH 8.0, 0.1% BSA, 0.01% Triton, 0.5 mM DTT) were added to the wells that were then incubated with the test compound for 20 min. A 6 μL solution of 3 μM of the substrate peptide H3K27me1 (histone H3[21-44]-K27me1-biotin) and 6 μM regulatory peptide H3K27me3 (histone H3[21-44]-K27me3) in reaction buffer was added to initiate each reaction. […] The data were fit to a dose response equation using the program Helios to get the IC50 values of the test compound.

T1 sequence (Q15910 whole entry): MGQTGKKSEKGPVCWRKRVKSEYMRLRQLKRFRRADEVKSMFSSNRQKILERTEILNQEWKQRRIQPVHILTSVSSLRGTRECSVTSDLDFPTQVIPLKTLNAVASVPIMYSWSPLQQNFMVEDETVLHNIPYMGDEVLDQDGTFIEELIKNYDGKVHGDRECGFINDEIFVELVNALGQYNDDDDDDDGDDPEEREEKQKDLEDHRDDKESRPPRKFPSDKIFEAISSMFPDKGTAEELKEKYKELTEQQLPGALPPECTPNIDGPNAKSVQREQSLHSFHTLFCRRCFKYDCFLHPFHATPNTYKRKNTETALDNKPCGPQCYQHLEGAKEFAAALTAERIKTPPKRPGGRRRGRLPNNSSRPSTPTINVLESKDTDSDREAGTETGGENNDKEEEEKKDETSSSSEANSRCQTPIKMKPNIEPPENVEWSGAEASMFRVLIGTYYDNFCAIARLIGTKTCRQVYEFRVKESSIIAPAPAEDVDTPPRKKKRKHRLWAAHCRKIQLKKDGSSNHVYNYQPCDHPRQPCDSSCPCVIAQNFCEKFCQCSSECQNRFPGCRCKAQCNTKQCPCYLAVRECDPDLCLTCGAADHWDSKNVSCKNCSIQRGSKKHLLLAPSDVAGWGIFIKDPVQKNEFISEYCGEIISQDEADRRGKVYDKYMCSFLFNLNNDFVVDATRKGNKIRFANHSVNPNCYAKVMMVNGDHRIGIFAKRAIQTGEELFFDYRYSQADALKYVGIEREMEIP
T1 sequence (O75530 whole entry): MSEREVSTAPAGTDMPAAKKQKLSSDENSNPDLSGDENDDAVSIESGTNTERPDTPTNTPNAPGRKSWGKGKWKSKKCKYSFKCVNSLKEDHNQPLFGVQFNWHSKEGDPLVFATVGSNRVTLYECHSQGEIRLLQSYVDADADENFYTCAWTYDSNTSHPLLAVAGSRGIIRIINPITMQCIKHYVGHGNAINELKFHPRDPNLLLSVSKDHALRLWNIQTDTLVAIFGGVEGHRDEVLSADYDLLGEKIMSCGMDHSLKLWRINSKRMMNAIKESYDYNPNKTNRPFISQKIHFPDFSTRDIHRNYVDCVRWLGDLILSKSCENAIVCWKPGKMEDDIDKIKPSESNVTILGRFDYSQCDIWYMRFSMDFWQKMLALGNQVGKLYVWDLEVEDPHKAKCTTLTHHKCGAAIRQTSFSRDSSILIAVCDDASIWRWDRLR
T1 sequence (Q15022 whole entry): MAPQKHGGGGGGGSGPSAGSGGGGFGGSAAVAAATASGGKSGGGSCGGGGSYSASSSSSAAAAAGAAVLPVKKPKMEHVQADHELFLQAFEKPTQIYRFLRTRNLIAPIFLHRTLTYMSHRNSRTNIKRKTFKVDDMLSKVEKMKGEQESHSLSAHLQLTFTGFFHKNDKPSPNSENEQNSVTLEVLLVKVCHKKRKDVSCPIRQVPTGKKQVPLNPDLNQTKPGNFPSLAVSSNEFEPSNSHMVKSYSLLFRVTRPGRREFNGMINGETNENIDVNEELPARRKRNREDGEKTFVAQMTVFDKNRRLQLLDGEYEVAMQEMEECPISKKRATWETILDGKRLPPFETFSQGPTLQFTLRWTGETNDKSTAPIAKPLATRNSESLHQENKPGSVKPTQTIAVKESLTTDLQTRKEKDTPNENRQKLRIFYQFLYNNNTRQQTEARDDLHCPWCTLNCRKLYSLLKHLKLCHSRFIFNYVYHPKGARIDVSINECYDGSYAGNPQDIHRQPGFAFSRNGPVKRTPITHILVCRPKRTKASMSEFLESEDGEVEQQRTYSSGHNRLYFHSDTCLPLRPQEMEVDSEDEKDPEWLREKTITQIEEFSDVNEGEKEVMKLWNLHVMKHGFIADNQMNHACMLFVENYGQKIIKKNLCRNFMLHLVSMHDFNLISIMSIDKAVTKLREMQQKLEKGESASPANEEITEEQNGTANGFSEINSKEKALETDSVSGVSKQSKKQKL

IC50 [1] | IC50 [2] | Compound
27 nM | 15 nM | COCCOC(=O)Nc1cnc(NCC2CCC(Nc3ccc4ccnc(Cl)c4n3)CC2)nc1 (stereo not drawn) [US12544374, Compound C16]
– | 27 nM | Clc1nccc2ccc(NC3CCC(CNc4ncc(COC5COC5)cn4)CC3)nc12 (stereo not drawn) [US12544374, Compound C35]
